# Read-outs that look alike come from different tables or passages of the source.
# Assays:
# [1] = test system: Glast, SOX2 and Nestin mRNA in U87/NPC organoids; experiment: qRT-PCR of biomarker mRNA in everolimus-treated irradiated organoids; type: cell-based, human; settings: irradiated organoids pre-treated with everolimus; qRT-PCR at day 10 after irradiation
# Procedure: (§1) Thus, the effect of a rapamycin analog, everolimus, on human cells was investigated using an in vitro organoids model. GFP-tagged glioblastoma U87 cells were cultured in presence of RFP-tagged neural progenitor cells (NPCs), differentiated from dermal fibroblasts reprogrammed to induced pluripotent stem cells, to form organoids. The organoids were exposed to 10 nM everolimus for 24 hours before 2 Gy-irradiation. […] This has been confirmed by qRT-PCR where Glast mRNA level (glioblastoma biomarker) decreases whereas SOX2 and Nestin mRNA levels (NPCs biomarkers) increase in irradiated organoids pre-treatment with everolimus (FIGS. 27A-27C).
# [2] = test system: organoids of GFP-tagged glioblastoma U87 cells and RFP-tagged neural progenitor cells (NPCs); experiment: Organoid fluorescence (cell viability) after everolimus pre-treatment and irradiation; type: cell-based, human; settings: 10 nM everolimus for 24 hours before 2 Gy-irradiation; over one week
# Procedure: as §1
# [3] = test system: RFP-transfected dermal fibroblasts spheroids; experiment: Growth of irradiated dermal fibroblast spheroids pre-treated with everolimus; type: cell-based; settings: everolimus 24 h before 4 Gy-irradiation; growth monitored for 8 days
# Procedure: FIG. 33 RFP-transfected dermal fibroblasts spheroids have been exposed to different concentrations of everolimus 24 h before 4 Gy-irradiation and their growth monitored for 8 days.
# SK-MEL-28 cells = experiment: Modified MTT drug response assay, withaferin A, 72 hours; type: cell-based, human; settings: WFA 72 hours, read-out: IC50 (concentration resulting in 50% of cell death)
# Procedure: A modified MTT experiment was developed from CellTiter 96 NonRadioactive Cell Proliferation Assay kit (Promega). Treated leaves were cut into 1×1 cm sized pieces and fit to the bottom of an untreated 48-well plate. 0.75×0.75 cm inserts were placed in the well on the top of the leaf, cells were plated at 10,000 cells/insert and incubated at 37° C. with 5% CO2 atmosphere. After 24 hours, the inserts were removed and leaves with attached cells were cut and re-plated into non-treated 96-well plates. In parallel, cells were also directly seeded into a treated 96-well plate at a concentration of 5000 cells/well. The medium was refreshed every 72 hours. Tetrazolium component was added at day 1, 3, 5 and 7 and absorbance of formazan product was measured at 570 nm by using Epoch microplate spectrophotometer (Biotek Instruments). For the drug response assay, withaferin A (WFA) was added at concentrations ranging from 0.156 to 40 μM and incubated for 72 hours prior to the addition of the […]. […]
# Microphthalmia-associated Transcription Factor (MITF) is a lineage-determining transcription factor critical for regulation of the melanocytic lineage during development and implicated as both a melanoma tumor suppressor and oncogene. […] Gene expression was then analyzed by qRT-PCR for MITF and three genes of the MITF-high expression signature (SOX10, MLANA and TYR). […]
smiles,measurement,setting,value
CO[C@H]1C[C@@H]2CC[C@@H](C)[C@@](O)(O2)C(=O)C(=O)N2CCCC[C@H]2C(=O)O[C@H]([C@H](C)C[C@@H]2CC[C@@H](OCCO)[C@H](OC)C2)CC(=O)[C@H](C)/C=C(\C)[C@@H](O)[C@@H](OC)C(=O)[C@H](C)C[C@H](C)/C=C/C=C/C=C/1C [everolimus],Glast mRNA level (glioblastoma biomarker),[1],decreases
same,Nestin mRNA level (NPCs biomarker),[1],increase
same,SOX2 mRNA level (NPCs biomarker),[1],increase
same,GFP fluorescence intensity (U87 cells) compared to vehicle-treated organoids after irradiation,[2],decreases
same,RFP fluorescence signal (NPCs) compared to vehicle-treated organoids after irradiation,[2],increases
same,growth of irradiated spheroids compared to non-pretreated spheroids,[3],increased
"CC1=C(CO)C(=O)O[C@@H]([C@@H](C)[C@H]2CC[C@H]3[C@@H]4C[C@H]5O[C@]56[C@@H](O)C=CC(=O)[C@]6(C)[C@H]4CC[C@]23C)C1 [WFA, withaferin A]",IC50,SK-MEL-28 cells; SK-MEL-28 cells seeded on decellularized spinach leaf scaffold,5.2 µM
same,IC50,SK-MEL-28 cells; SK-MEL-28 cells seeded on stiff substrate (TCPS),1.1 µM
